Results: paper PMC10388363, “Novel 1,4-Dihydropyridines as Specific Binders and Activators of SIRT3 Impair Cell Viability and Clonogenicity and Downregulate Hypoxia-Induced Targets in Cancer Cells” (Journal of Medicinal Chemistry, 2023)

Columns and labels:
human SIRT3 = target: T1, human SIRT3 (Homo sapiens, UniProt Q9NTG7); experiment: PncA/GDH-coupled deacylation assay, SIRT3 activation (ACS2-acK642 substrate); assay type: biochemical; conditions: 100 μM, 387% vs 269%
T1 construct: pET151D/Topo (Sirt3-114-380 and Sirt5-34-302); His tag (N, cleaved yes); made in house; host or cells: Escherichia coli
T1 sequence (Q9NTG7 114-380): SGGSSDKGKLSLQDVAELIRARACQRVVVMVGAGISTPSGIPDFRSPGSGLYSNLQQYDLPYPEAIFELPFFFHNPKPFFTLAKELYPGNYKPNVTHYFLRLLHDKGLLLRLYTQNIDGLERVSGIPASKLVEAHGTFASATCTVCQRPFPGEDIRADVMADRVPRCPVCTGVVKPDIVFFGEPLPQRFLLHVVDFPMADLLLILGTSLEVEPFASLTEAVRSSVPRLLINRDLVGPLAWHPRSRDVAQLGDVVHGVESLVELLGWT
Procedure: To avoid artifacts and other non-specific effects, instead of the “Fluor-de-Lys” (FdL) substrate, we used a PncA/GDH-coupled deacylation assay by measuring the NADPH oxidation to NADP^+ that relies on isoform-specific non-modified physiological acetyl or succinyl substrates [p53-acK381 for SIRT1, α-tubulin-[…] for SIRT2, acetyl-CoA synthetase 2 (ACS2)-acK642 for SIRT3, and CPS1-succK537 for SIRT5].[59] The assays were carried out using the 1,4-DHP derivatives 2a–n and 3a–d against SIRT3, including the prototype compounds 2 and 3 as positive controls.
N-terminally his-tagged human sirtuins were expressed in Escherichia coli using constructs in pET15b (Sirt1) or pET151D/Topo (Sirt3-114-380 and Sirt5-34-302).[4],[59],[61] Sirt2-43-356 was expressed from a modified pET19b containing a TEV protease cleavage site and an N-terminal SUMO-tag.[59],[79] Proteins were expressed and purified as described elsewhere.[59],[61],[79]−[81] In brief, proteins were expressed in E. coli, crude extracts were cleared by centrifugation, and the proteins were affinity purified using NiNTA beads.
Sirtuin deacylation activities were analyzed by using a coupled enzymatic assay as described in.[59],[82] […]

MDA-MB-231 cells = experiment: Clonogenic assay, MDA-MB-231; assay type: cell-based, human; conditions: for reduction of clonogenicity: MDA-MB-231, 50 μM, 48 h
Procedure: Afterward, the selected compounds 3a–d were assayed at 50 μM for 24 and 48 h in CAL-62 and MDA-MB-231 cells to assess their ability to impair the cell viability and colony formation in either normoxia or hypoxia-induced condition, the latter obtained by adding a 200 μM cobalt chloride solution, as described in previous reports[69] (Figure 8). Most cancer cells, mainly solid types, are known to have an altered metabolism due to hypoxia, a non-physiological level of oxygen tension, which contributes to therapy resistance by causing cellular quiescence.[70] Moreover, hypoxic cancer cells can induce several factors that lead to cell proliferation and colony formation.[71]
Cells were seeded in a 100 mm dish and, once at 80–90% confluence, treated as described in the Results and Discussion section. After 24 and 48 h, cells were collected, counted, and 500 cells plated in a 100 mm dish. After about 7 days for CAL62 and 10 days for MDA-MB-231, plates were washed with phosphate-buffered saline solution (PBS); (Merck; 79382), and clones were fixed with 4% formaldehyde solution in PBS (Merck; F8775) at room temperature for 15 min. After that, the dishes were washed with PBS, and clones stained for 5 min with 0.5% crystal violet (Merck; C0775). Finally, the plates were washed with distilled water and air-dried. After scanning each individual dish, the colonies were counted the following day.

| SIRT3 activation potency relative to reference 3 (human SIRT3) [fold] | SMILES | IC50 (MDA-MB-231 cells; Homo sapiens, MDA-MB-231, 48 h, normoxia, read-out: IC50 against colonies formation) [nM] | reduction of clonogenicity (MDA-MB-231 cells; hypoxia) [%] | reduction of clonogenicity (MDA-MB-231 cells; normoxia) [%] |
| --- | --- | --- | --- | --- |
| 1.4 | CCOC(=O)C1=CN(C(=O)c2ccc(OC)c(OC)c2)C=C(C(=O)OCC)C1c1ccccc1 [Compound 3c, Diethyl 1-(3,4-dimethoxybenzoyl)-4-phenyl-1,4-dihydropyridine-3,5-dicarboxylate] | – | – | – |
| – | CCOC(=O)C1=CN(C(=O)c2cc(OC)cc(OC)c2)C=C(C(=O)OCC)C1c1ccccc1 [Compound 3d, Diethyl 1-(3,5-dimethoxybenzoyl)-4-phenyl-1,4-dihydropyridine-3,5-dicarboxylate] | ~2200 | 95 | 86 |
